In assay [1] the test system is CLL cells without a TP53 mutation. Briefly: FACS analysis of treated CLL cells without TP53 mutation. In kind it is cell-based, human. Conditions: 24 h, 0.01-100 μM, FIG. 6. As to the method:
(§1) Isolated, primary CLL cells were treated for 24 h with the EC50 of the different compounds and the ATP-content was measured by flow cytometry. For each used compound the order of mean EC50 concentrations in the bar chart is from left to right as following: EC50 CLL cells TP53 unmut (unmutated=without mutation), EC50 CLL cells TP53 mut (mutated=with mutation).
(§2) Further, the derivatives B9, B12 and B13 were tested in comparison to para-NO-ASA on CLL cells which harbour a TP53 mutation. The patient subgroup with a TP53 disruption is characterized by a considerable dismal prognosis. CLL cells of patients with and without the TP53 mutation were treated with five different concentrations (0.01, 0.1, 1, 10, 100 μM) of para-NO-ASA, B9, B12 and B13 for 24 h.

Assay [2] deals with ovarian adenocarcinoma cell line COLO704. As to the kind of experiment: Viability assay (ATP content, CellTiter-Glo), COLO704. In kind it is cell-based. The note with it: COLO 704, 24 h. As to the method: (§3) In the following experiment the possible therapeutic window for NO-ASA derivatives was investigated. […] The melanoma cell line MelJuso, the colon carcinoma cell line SW480, the small cell lung cancer cell line HCC44, the ovarian adenocarcinoma cell line COLO704 and the acute myeloid leukemia cell line SH2 were treated with concentrations of p-NO-ASA and B9, B12 and B13 in a range between 0.01 μM and 100 μM for 24 h, followed by addition of luminogenic CellTiter-Glo® reagent.
(§4) Table accompanying Example 5. Overview of the EC50 values of cell survival analyzed by ATP content and Annexin V/PI assay. n.t.; not tested

In assay [3] the test system is SW480, MelJuso, HCC44, SH2 and COLO704 cell lines. The format is cell-based. The note with it: 24 h, 0.01-100 μM. As to the method: as §3
The test system of assay [4] is several cancer cell lines. As to the kind of experiment: Apoptosis (Annexin V/PI) assay, panel of cancer cell lines. The format is cell-based. Conditions: range over the cancer cell lines, 24 h; read-out: concentrations inducing apoptosis in different diseases (apoptosis array).
Assay [5] deals with acute myeloid leukemia cell line SH2. As to the kind of experiment: Annexin V/PI assay, SH2. In kind it is cell-based. Conditions: 24 h.
Assay [6] deals with melanoma cell line MelJuso. Briefly: Viability assay (ATP content, CellTiter-Glo), MelJuso. In kind it is cell-based. Conditions: Homo sapiens, MEL-JUSO, 24 h. As to the method: as §3, §4
Background: In ATP-based viability assays light output follows the ATP content of the culture.

A further assay relates to Primary CLL cells. As to the kind of experiment: AnnexinV/PI assay on primary CLL cells. In kind it is cell-based, human. As to the method: PBMCs or CLL cells (5*10^6 cells/ml) were incubated for 24 h with different compounds at concentrations from 0.01 to 100 μM. Cell survival was normalized to DMSO control [vehicle]. See Example 1.
Primary CLL or peripheral blood mononuclear cells of healthy donors (5*10^6/ml) were incubated for 24 h with different compounds according to the invention and NO-ASA as a control. The compounds were added in different concentrations, in particular in concentrations from 0.01-100 μM. Cell survival was assessed by AnnexinV/PI assay (Kit commercially available, e.g. by Biotium Inc, USA; or Phoenix Flow Systems, US), the results were normalized to DMSO control [vehicle] and dose response curves were calculated using a non-linear regression model.

Assay [7] concerns ovarian adenocarcinoma cell line COLO704. As to the kind of experiment: Annexin V/PI assay, COLO704. The format is cell-based. The note with it: COLO 704, 24 h.
The subject of assay [8] is small cell lung cancer cell line HCC44. As to the kind of experiment: Viability assay (ATP content, CellTiter-Glo), HCC44. The format is cell-based. Conditions: Homo sapiens, HCC44, 24 h. As for the experimental part:
as §3, §4

Assay [9] deals with colon carcinoma cell line SW480. Briefly: cells. The format is cell-based. The note with it: Homo sapiens, SW480, 24 h, read-out: Viability assay EC50, SW480. As to the method: The cell lines (n=5) were treated with different concentrations of p-NO-ASA, B9, B12 and B13 ranging between 0.01 μM and 100 μM for 24 hours followed by addition of luminogenic CellTiter-Glo®-reagent (see Example 5).
as §3, §4

For the next assay, the system named is EHEB. Briefly: CellTiter-Glo ATP assay, EHEB cell line. In kind it is cell-based. The note with it: 24 h, 0.01-1000 μM. As to the method:
(§5) Several cell lines (n=5) were treated with different concentrations of p-NO-ASA, B9, B12 and B13 ranging between 0.01 μM and 1000 μM for 24 hours followed by addition of luminogenic CellTiter-Glo®-reagent. […] For each cell line the order of used compound in the bar chart is from left to right as following: p-NO-ASA, B9, B12, B13.
(§6) Treatment success in CLL may depend on cytogenetic and molecular parameters as for instance del13q or TP53 gene disruption. Therefore, the NO-ASA derivatives were examined on (chronic) B cell lymphoma cell lines with different geno- and phenotypes (JVM3, EHEB, U2932, MEC-1, GRANTA-519). The cells were treated with concentrations between 0.01 and 1000 μM for 24 h followed by the addition of luminogenic CellTiter-Glo® reagent.

The subject of assay [10] is acute myeloid leukemia cell line SH2. Briefly: Viability assay (ATP content, CellTiter-Glo), SH2. In kind it is cell-based. Conditions: 24 h. As for the experimental part:
as §3, §4

Another assay relates to MEC-1. Briefly: CellTiter-Glo ATP assay, MEC-1 cell line. In kind it is cell-based. Conditions: Homo sapiens, MEC1; 24 h, CellTiter-Glo. As to the method: as §5, §6
The test system of assay [11] is small cell lung cancer cell line HCC44. As to the kind of experiment: Annexin V/PI assay, HCC44. The format is cell-based. The note with it: Homo sapiens, HCC44, 24 h.
The subject of assay [12] is melanoma cell line MelJuso. Briefly: Annexin V/PI assay, MelJuso. In kind it is cell-based. The note with it: Homo sapiens, MEL-JUSO, 24 h.
The next assay relates to U2932. Briefly: CellTiter-Glo ATP assay, U2932 cell line. In kind it is cell-based. The note with it: 24 h, 0.01-1000 μM. As to the method:
as §5, §6

A further assay relates to TP53-mutated CLL cells. As to the kind of experiment: FACS analysis of treated CLL cells with TP53 mutation. Conditions: 24 h, 0.01-100 μM, FIG. 6. The format is cell-based, human. As for the experimental part:
as §1, §2

Turning to `O=C(Oc1ccc(CO[N+](=O)[O-])cc1)c1ccccc1` [B9, 4-((nitrooxy)methyl)phenyl benzoate], the “effect on CLL cells without a TP53 mutation” value in assay [1] is on record as “great effect”. Also, the EC50 in assay [2] is 4.33 µM; in assay [4] it was 1 to 9 µM; in assay [5] it was 1.93 µM; in assay [6], 0.89 µM; in the assay with Primary CLL cells (Homo sapiens, CLL cell, 24 h incubation, 0.01-100 μM, 5*10^6 cells/ml, normalized to DMSO control, read-out: AnnexinV/PI assay EC50 Primary CLL) it was 1.85 µM; in assay [7] it was 7.25 µM. The EC50 was determined as 2.48 µM in [8]; 31.8 µM in [9]; 0.16 µM in [10]; 6.62 µM with MEC-1; 6.76 µM in assay [11]; 8.76 µM in assay [12]. Further, in [3], the “ATP content in SW480, MelJuso, HCC44, SH2 and COLO704 cell lines” value was “reduced ATP content”. For the same molecule, the “selectivity for CLL cells compared to PBMCs” value in the assay on Primary CLL cells (FIG. 3, sensitivity of CLL cells vs PBMCs, 24 h) is recorded as “selective for CLL cells”. The “ATP content in EHEB” value in the assay with EHEB is on record as “reduced ATP content”. Moreover, in the assay with U2932, the “ATP content in U2932” value was “reduced ATP content”. For the same molecule, the “effect on TP53-mutated CLL cells in comparison to para-NO-ASA (B1)” value in the assay on TP53-mutated CLL cells is listed as “more effective”.

The values are drawn from patent publication US10793509B2, “Compounds useful in the treatment of neoplastic diseases” (UNIVERSITÄT ZU KÖLN, priority 2013, dated 2020).
